Test results published in US5705630A, “2'-methylidenepyrimidine nucleoside compounds” (Yoshitomi Pharmaceutical Industries, Ltd., priority 1988, dated 1998).

Assay: solubility (general statement)
Type: physicochemical
Conditions: with respect to pharmaceutical production

- solubility: inferior in solubility
Structure (SMILES): C=C1[C@H](n2ccc(N)nc2=O)O[C@H](CO)[C@H]1O [2'-deoxy-2'-methylidenecytidine]
